Each structure is given as a SMILES string. Values joined by “and” are separate entries in the source; they are usually repeats but may differ in a detail not shown here. Equal values may be shown once. Toxic doses and inconclusive results are not listed.

The test system of the test is P388 leukemia ip, CD2F1 mice, survival T/C. Nature of the test: NCI In Vivo Anticancer Drug Screen. Data for tumor model P388 Leukemia (intraperitoneal) in CD2F1 (CDF1) mice. To be noted: endpoint: median survival time, higher = longer survival. The essentials: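 Mice carrying the transplanted tumor received test compound or vehicle. Survival was recorded in each group, and the value is the treated-group measurement divided by that of the vehicle-treated control group.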

Setting [1] is: dose: 3.12 mg/kg/injection, schedule: Q01DX009 (ip), vehicle: saline.
Setting [2] is: dose: 100.0 mg/kg/injection, schedule: Q01DX001 (ip), vehicle: saline with Tween-80.
The mark [3] stands for this setting: dose: 200.0 mg/kg/injection, schedule: Q01DX001 (ip), vehicle: saline with Tween-80.
Setting [4] is: dose: 400.0 mg/kg/injection, schedule: Q01DX001 (ip), vehicle: saline with Tween-80.
[5] abbreviates: dose: 50.0 mg/kg/injection, schedule: Q01DX005 (ip), vehicle: Klucel (hydroxypropylcellulose) (HPC).
[6] abbreviates: dose: 100.0 mg/kg/injection, schedule: Q01DX005 (ip), vehicle: Klucel (hydroxypropylcellulose) (HPC).
Where [7] appears, read: dose: 200.0 mg/kg/injection, schedule: Q01DX005 (ip), vehicle: Klucel (hydroxypropylcellulose) (HPC).
Where [8] appears, read: dose: 12.5 mg/kg/injection, schedule: Q01DX009 (ip), vehicle: saline.
[9] abbreviates: dose: 25.0 mg/kg/injection, schedule: Q01DX009 (ip), vehicle: saline.
[10] abbreviates: dose: 50.0 mg/kg/injection, schedule: Q01DX005 (ip), vehicle: saline.
Where [11] appears, read: dose: 100.0 mg/kg/injection, schedule: Q04DX003 (ip), vehicle: saline with Tween-80.
Where [12] appears, read: dose: 200.0 mg/kg/injection, schedule: Q04DX003 (ip), vehicle: saline with Tween-80.
Where [13] appears, read: dose: 50.0 mg/kg/injection, schedule: Q01DX009 (ip), vehicle: saline.
Setting [14] is: dose: 200.0 mg/kg/injection, schedule: Q01DX005 (ip), vehicle: saline with Tween-80.
Where [15] appears, read: dose: 50.0 mg/kg/injection, schedule: Q01DX005 (ip), vehicle: saline with Tween-80.
Setting [16] is: dose: 100.0 mg/kg/injection, schedule: Q01DX005 (ip), vehicle: saline with Tween-80.
The mark [17] stands for this setting: dose: 10.0 mg/kg/injection, schedule: Q01DX009 (ip), vehicle: Klucel (hydroxypropylcellulose) (HPC).
[18] abbreviates: dose: 20.0 mg/kg/injection, schedule: Q01DX009 (ip), vehicle: Klucel (hydroxypropylcellulose) (HPC).
[19] abbreviates: dose: 100.0 mg/kg/injection, schedule: Q01DX001 (ip), vehicle: saline.
Setting [20] is: dose: 200.0 mg/kg/injection, schedule: Q01DX001 (ip), vehicle: saline.
Where [21] appears, read: dose: 400.0 mg/kg/injection, schedule: Q01DX001 (ip), vehicle: saline.
[22] abbreviates: dose: 100.0 mg/kg/injection, schedule: Q01DX009 (ip), vehicle: saline.

Take `CCN1/C(=C/C=C/C=C/c2oc3ccccc3[n+]2CC)Oc2ccccc21`: the T/C runs as follows: (dose: 0.78 mg/kg/injection, schedule: Q01DX009 (ip), vehicle: saline) 104 % of control; (dose: 1.56 mg/kg/injection, schedule: Q01DX009 (ip), vehicle: saline) 104 % of control; under setting [1], 110 % of control.

`S=c1[nH]nc2nc3c4ccccc4c4ncccc4c3nn12`: the T/C was 92 % of control under setting [2], 91 % of control under setting [3] and 100 % of control under setting [4].

For `C=Cc1nc(N)nc(-c2ccc(C)cc2)n1`, the T/C under setting [5] was 110 % of control, the T/C under setting [6] is 111 % of control and the T/C under setting [7] is 118 % of control.

`Cc1cc(C(=O)O)sn1`: the T/C was 100 % of control under setting [1]; 100 % of control (dose: 6.25 mg/kg/injection, schedule: Q01DX009 (ip), vehicle: saline); 96 % of control under setting [8]; 100 % of control under setting [9].

With `COC1=C(OC)C(=O)C2=C(OCO2)C1=O`, the T/C reads like this: (dose: 60.0 mg/kg/injection, schedule: Q01DX005 (ip), vehicle: saline with Tween-80) 104 % of control; (dose: 120.0 mg/kg/injection, schedule: Q01DX005 (ip), vehicle: saline with Tween-80) 100 % of control; (dose: 240.0 mg/kg/injection, schedule: Q01DX005 (ip), vehicle: saline with Tween-80) 107 % of control.

As for `CCCCC(NC(=O)CNC(=O)OCc1ccccc1)C(=O)O` (stereo not given), the T/C under setting [5] is 90 % of control, the T/C under setting [6] was 104 % of control and the T/C under setting [7] was 95 % of control.

With `CCN(CC)CC(CN(CC)CC)N(CCO)CC(C)C`, the T/C runs as follows: under setting [10], 93 % of control; (dose: 100.0 mg/kg/injection, schedule: Q01DX005 (ip), vehicle: saline) 100 % of control.

Turning to `CC(ON)C(=O)O` (stereo not given), the T/C (dose: 6.25 mg/kg/injection, schedule: Q01DX005 (ip), vehicle: saline) is 96 % of control; the T/C (dose: 12.5 mg/kg/injection, schedule: Q01DX005 (ip), vehicle: saline) was 102 % of control; the T/C (dose: 25.0 mg/kg/injection, schedule: Q01DX005 (ip), vehicle: saline) was 102 % of control; the T/C under setting [10] was 99 % of control.

With `NCc1c(Cl)c(Cl)c(Cl)c(CN)c1Cl`, the T/C reads like this: (dose: 50.0 mg/kg/injection, schedule: Q04DX003 (ip), vehicle: saline with Tween-80) 100 % of control; under setting [11], 100 % of control; under setting [12], 105 % of control.

Regarding `CNC(=O)Nc1ccnc(=O)[nH]1`, under setting [5], the T/C was 116 % of control.

For the compound `N#CC12c3ccccc3C(c3ccccc31)C1C(=O)C=CC(=O)C12` (stereo not given), the T/C under setting [8] is 111 % of control; the T/C under setting [9] is 106 % of control; the T/C under setting [13] is 92 % of control and 96 % of control.

Consider `COC(=O)c1ncn(C)c1O`, for which the T/C by setting is: (dose: 60.0 mg/kg/injection, schedule: Q01DX005 (ip), vehicle: water) 103 % of control; (dose: 120.0 mg/kg/injection, schedule: Q01DX005 (ip), vehicle: water) 113 % of control; (dose: 240.0 mg/kg/injection, schedule: Q01DX005 (ip), vehicle: water) 104 % of control.

For the compound `C=CCNC(=S)Nc1sc2c(c1C(=O)OCC)CCCC2`, the T/C by setting is: (dose: 50.0 mg/kg/injection, schedule: Q01DX009 (ip), vehicle: Klucel (hydroxypropylcellulose) (HPC)) 93 % of control; (dose: 100.0 mg/kg/injection, schedule: Q01DX009 (ip), vehicle: Klucel (hydroxypropylcellulose) (HPC)) 94 % of control; (dose: 200.0 mg/kg/injection, schedule: Q01DX009 (ip), vehicle: Klucel (hydroxypropylcellulose) (HPC)) 89 % of control.

Take `CC(=O)OC/C=C(C)/C=C/C=C(C)/C=C/C1=C(C)CCCC1(C)C`: the T/C was 95 % of control under setting [14]; 97 % of control (dose: 400.0 mg/kg/injection, schedule: Q01DX005 (ip), vehicle: saline with Tween-80); 97 % of control (dose: 800.0 mg/kg/injection, schedule: Q01DX005 (ip), vehicle: saline with Tween-80); 101 % of control (dose: 1600.0 mg/kg/injection, schedule: Q01DX005 (ip), vehicle: saline with Tween-80).

`S=C(S)NCCCn1ccnc1`: the T/C was 117 % of control under setting [15], 109 % of control under setting [16] and 110 % of control under setting [14].

On to `CC1(C)CC(O)(CC2CCC34C(=O)OC(C)(CCC3Br)C24)CCC1Br` (stereo not given), for which the T/C runs as follows: (dose: 5.0 mg/kg/injection, schedule: Q01DX009 (ip), vehicle: Klucel (hydroxypropylcellulose) (HPC)) 93 % of control; under setting [17], 109 % of control; under setting [18], 100 % of control.

`COCC1(C)CCCC2(C)C1CCC13CCC(O)CC12O3` (stereo not given): the T/C is, setting by setting: under setting [19], 105 % of control; under setting [20], 105 % of control; under setting [21], 103 % of control.

Consider `CC1c2c(cc(OC(=O)c3cccc(S(=O)(=O)F)c3)nc2OC(=O)c2cccc(S(=O)(=O)F)c2)C(=O)N1Cc1ccccc1` (stereo not given), for which the T/C runs as follows: (dose: 6.25 mg/kg/injection, schedule: Q01DX009 (ip), vehicle: Klucel (hydroxypropylcellulose) (HPC)) 97 % of control; (dose: 12.5 mg/kg/injection, schedule: Q01DX009 (ip), vehicle: Klucel (hydroxypropylcellulose) (HPC)) 88 % of control; (dose: 25.0 mg/kg/injection, schedule: Q01DX009 (ip), vehicle: Klucel (hydroxypropylcellulose) (HPC)) 87 % of control.

`NC(N)=NCCCC(N)C(=O)O` (stereo not given): the T/C runs as follows: under setting [13], 119 % of control; under setting [22], 100 % of control and 122 % of control; (dose: 200.0 mg/kg/injection, schedule: Q01DX009 (ip), vehicle: saline) 105 % of control and 110 % of control; (dose: 400.0 mg/kg/injection, schedule: Q01DX009 (ip), vehicle: saline) 100 % of control.

As for `Cc1ccc(S(=O)(=O)N/N=C/c2c(-c3ccc(-c4ccccc4)cc3)nc3n2CCS3)cc1`, the T/C under setting [2] is 100 % of control, the T/C under setting [3] is 102 % of control and the T/C under setting [4] is 90 % of control.

In the case of `NC1[N-]C(C2CCCC[N-]2)CC2CCCCC21.NC1[N-]C(C2CCCC[N-]2)CC2CCCCC21.O=[N+]([O-])O.[Cu+2]` (stereo not given), the T/C (dose: 6.25 mg/kg/injection, schedule: Q04DX002 (ip), vehicle: suspension in saline) was 108 % of control and the T/C (dose: 12.5 mg/kg/injection, schedule: Q04DX002 (ip), vehicle: suspension in saline) is 109 % of control.

As to `COc1cc(NC(=O)c2ccc(NC(=O)c3ccc(N)cc3)cc2)c(OC)cc1N=Nc1cc(C)c(N=Nc2cc(S(=O)(=O)O)c3cccc(S(=O)(=O)O)c3c2)cc1C`, the T/C runs as follows: under setting [15], 100 % of control; under setting [16], 94 % of control.

With `C[C@@H]1CCC[C@H]1CC(N)C(=O)O` (stereo not given in full), the T/C is 99 % of control under setting [15], 95 % of control under setting [16] and 91 % of control under setting [14].

In the case of `CCCCOCC(=O)O`, the T/C under setting [9] is 94 % of control, the T/C under setting [13] was 97 % of control and the T/C under setting [22] is 93 % of control.

In the case of `CC(/C=C/c1ccc2c(c1)OCO2)=N\NC(N)=O`, the T/C under setting [15] was 100 % of control, the T/C under setting [16] is 97 % of control and the T/C under setting [14] is 95 % of control.

Take `C=C1CC[C@@H]2C(C)(C)CCC[C@@]2(C)[C@@H]1Cc1cc(O)ccc1O`: the T/C was 104 % of control under setting [17]; 110 % of control under setting [18]; 116 % of control (dose: 40.0 mg/kg/injection, schedule: Q01DX009 (ip), vehicle: Klucel (hydroxypropylcellulose) (HPC)).

Turning to `C[C@]12CCCC[C@@H]1CC[C@@H]1[C@@H]2[C@@H](O)C[C@]2(C)[C@@H](O)CC[C@@H]12`, the T/C is 91 % of control under setting [11] and 100 % of control under setting [12].

Turning to `O=C(CP(=O)(O)O)OC1CCCCC1`, the T/C by setting is: under setting [19], 101 % of control; under setting [20], 101 % of control; under setting [21], 100 % of control.

Turning to `N=C1SCC(=O)C1C(=O)O` (stereo not given), the T/C is, setting by setting: under setting [15], 105 % of control; under setting [16], 119 % of control; under setting [14], 110 % of control.

The record behind these values is PubChem BioAssay AID330 (DTP/NCI, 2004).
